Experimental data published in patent US20090142363A1, “CYTOTOXIC T-CELL EPITOPE PEPTIDE AND USE THEREOF” (priority 2005, published 2009).
No end group written: not given here.

Columns and labels:
[1] = test system: CTLs with target cells expressing HLA-A*24 molecules; assay: Confirmation of CTLs by ELISPOT assay (IFNγ spots); format: cell-based, human; settings: FIG. 4
Protocol: A commercially available ELISPOT assay kit (for example, MABTECH Co.) may be purchased, and the assay can be performed according to the manufacturer's protocol. Alternatively, the assay may also be carried out by the following procedure. 96-well MultiScreen-HA plates (Millipore Co.) were coated with an anti-IFNγ monoclonal antibody (R&D Systems Co.) at 4° C. for overnight. Each well was washed with PBS. Target cells were plated into each well. Any cells expressing HLA-A*24 molecules on their surface can be used as the target cells. For example, T2-A24, a cultured cell which a gene of HLA-A*24 molecule is introduced into a 174CEM.T2 cell, can be used. Alternatively, EBV-infected LCLs expressing HLA-A*24 molecules on their surface can be used as the target cells. These target cells were added into each well with a candidate peptide for adenovirus-specific CTL epitopes or a negative control (HIV) peptide. The mixtures were allowed to stand at room temperature for 30 minutes. Then, an adequate number of CTLs were added, and the mixtures were cultured in a 5% CO2 incubator at 37° C. for 20 hours. CTLs that responded to the candidate epitope peptide secreted IFNγ during this culture period, and the IFNγ bound to the anti-IFNγ monoclonal antibody that was coated on the plates. After culturing was completed, the plates were washed with PBS containing 0.05% Tween-20. Then, an anti-IFNγ polyclonal antibody (Genzyme Co.) and peroxidase-labeled goat anti-rabbit IgG serum were allowed to react in this order at room temperature for 90 minutes each. Furthermore, 3-amino-9-ethylcarbasole (Sigma), a peroxidase substrate, and 0.1M sodium acetate buffer (pH 5.0) containing 0.015% H2O2 was added to each well, and the plates were incubated at room temperature for 40 minutes to visualize the IFNγ spots. The spots were counted under a stereomicroscope.
The spots were counted under a stereomicroscope, and were plotted on a graph.

[2] = test system: PBMCs of healthy adults reactive to the anti-HLA-A*24 antibody; assay: Induction of specific CTLs from PBMCs, method for quantifying cells producing intracellular IFNγ; format: cell-based, human; parameters: key to specific CTL induction, cytokine quantification method: ∘: “open circle” indicates that the use of a candidate peptide enabled specific CTLs to be induced; x: “cross” indicates that specific CTLs was unable to be induced; settings: for specific CTL induction confirmed by CD8-positive, IFNγ-positive cells versus HIV peptide: donor ID*24-8, FIG. 3a-d; for peptide-specific cytokine production in PBMCs derived from ten people with HLA-A*24 molecule: summary of Table 2
Method in brief: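 Per culture, 1–3×10^6 HLA-A*24 PBMCs were grown in RPMI1640 with 5% autologous plasma and 10 μg/ml peptide; IL-2 (20–100 U/ml) was added at day 2 and peptide restimulation done at about 2 weeks. Cells were re-exposed to 0.01–0.05 μg/ml peptide with a transport inhibitor for 5–16 h at 37° C. The IFNγ-positive fraction among T cells or MHC-tetramer+ cells was measured by flow cytometry.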

| Sequence | IFNγ spots in ELISPOT assay compared with the negative control (HIV) peptide [1] | specific CTL induction, cytokine quantification method ([2]; donor ID *24-1) | specific CTL induction, cytokine quantification method ([2]; donor ID *24-2) | specific CTL induction, cytokine quantification method ([2]; donor ID *24-3) | specific CTL induction, cytokine quantification method ([2]; donor ID *24-5) | specific CTL induction, cytokine quantification method ([2]; donor ID *24-8) | specific CTL induction, cytokine quantification method ([2]; donor ID *24-10) | specific CTL induction, cytokine quantification method ([2]; donor ID *24-11) | specific CTL induction, cytokine quantification method ([2]; donor ID *24-12) | specific CTL induction, cytokine quantification method ([2]; donor ID *24-13) | specific CTL induction, cytokine quantification method ([2]; donor ID *24-14) | specific CTL induction confirmed by CD8-positive, IFNγ-positive cells versus HIV peptide [2] | peptide-specific cytokine production in PBMCs derived from ten people with HLA-A*24 molecule [2] |
| --- | --- | --- | --- | --- | --- | --- | --- | --- | --- | --- | --- | --- | --- |
| TYFNLGNKF [TYF] | IFNγ spots were observed | x | ∘ | x | x | ∘ | x | x | x | x | x | induced specific CTLs | induce cytokine production in a peptide-specific manner |
| VYSGSIPYL | IFNγ spots were observed | x | ∘ | x | x | ∘ | x | x | x | x | x | induced specific CTLs | induce cytokine production in a peptide-specific manner |
